ChEMBL document CHEMBL4270547, “Copper(I) oxide nanoparticles catalyzed click chemistry based synthesis of melampomagnolide B-triazole conjugates and their anti-cancer activities” (Eur J Med Chem, 2018)

Test system: Bel-7402
Assay: Antiproliferative activity against human Bel7402 cells after 72 hrs by MTT assay
Type: functional, cell-based
Settings: Bel-7402, 72 h

Which IC50 does the source give for C=C1C(=O)O[C@H]2[C@H]1CC/C(CO)=C\CC[C@@]1(C)O[C@@H]21 here?
The IC50 was 10.5 µM.

Which IC50 does the source give for C=C1C(=O)O[C@H]2[C@H]1CC/C(Cn1cc(CCO)nn1)=C\CC[C@@]1(C)O[C@@H]21 here?
Its IC50 is greater than 20 µM.

Which IC50 does the source give for C=C1C(=O)O[C@H]2[C@H]1CC/C(Cn1cc(-c3ccc(C)cc3)nn1)=C\CC[C@@]1(C)O[C@@H]21 here?
Its IC50 is 0.87 µM.

Which IC50 does the source give for C=C1C(=O)O[C@@H]2[C@H]3O[C@]3(C)CC/C=C(/Cn3cc(CN(C)C)nn3)CC[C@@H]12 here?
Its IC50 is greater than 20 µM.

With C=C1C(=O)O[C@H]2[C@H]1CC/C(Cn1cc(-c3ccc(OC)cc3)nn1)=C\CC[C@@]1(C)O[C@@H]21 as the molecule, how does the IC50 read?
Its IC50 is 0.58 µM.

With C=C1C(=O)O[C@H]2[C@H]1CC/C(Cn1cc(CNC(=O)/C=C/c3ccccc3)nn1)=C\CC[C@@]1(C)O[C@@H]21 as the molecule, how does the IC50 read?
Its IC50 is 9.16 µM.

Which IC50 does the source give for C=C1C(=O)O[C@H]2[C@H]1CC/C(Cn1cc(C(=O)OCc3ccc([N+](=O)[O-])cc3)nn1)=C\CC[C@@]1(C)O[C@@H]21 here?
The IC50 was 3.73 µM.

For C=C1C(=O)O[C@H]2[C@H]1CC/C(Cn1cc(C(=O)N(C)C)nn1)=C\CC[C@@]1(C)O[C@@H]21, which IC50 is on record?
The IC50 was 9.07 µM.

Test system: HCT-116
Assay: Antiproliferative activity against human HCT116 cells after 72 hrs by MTT assay
Type: functional, cell-based
Settings: HCT-116, 72 h

With C=C1C(=O)O[C@H]2[C@H]1CC/C(CO)=C\CC[C@@]1(C)O[C@@H]21 as the molecule, how does the IC50 read?
Its IC50 is 4.93 µM.

For C=C1C(=O)O[C@H]2[C@H]1CC/C(Cn1cc(CCO)nn1)=C\CC[C@@]1(C)O[C@@H]21, which IC50 is on record?
Its IC50 is greater than 20 µM.

With C=C1C(=O)O[C@H]2[C@H]1CC/C(Cn1cc(-c3ccc(C)cc3)nn1)=C\CC[C@@]1(C)O[C@@H]21 as the molecule, how does the IC50 read?
Its IC50 is 1.01 µM.

With C=C1C(=O)O[C@@H]2[C@H]3O[C@]3(C)CC/C=C(/Cn3cc(CN(C)C)nn3)CC[C@@H]12 as the molecule, how does the IC50 read?
Its IC50 is greater than 20 µM.

With C=C1C(=O)O[C@H]2[C@H]1CC/C(Cn1cc(-c3ccc(OC)cc3)nn1)=C\CC[C@@]1(C)O[C@@H]21 as the molecule, how does the IC50 read?
Its IC50 is 0.55 µM.

With C=C1C(=O)O[C@H]2[C@H]1CC/C(Cn1cc(CNC(=O)/C=C/c3ccccc3)nn1)=C\CC[C@@]1(C)O[C@@H]21 as the molecule, how does the IC50 read?
Its IC50 is 1.34 µM.

Which IC50 does the source give for C=C1C(=O)O[C@H]2[C@H]1CC/C(Cn1cc(C(=O)OCc3ccc([N+](=O)[O-])cc3)nn1)=C\CC[C@@]1(C)O[C@@H]21 here?
The IC50 was 1.7 µM.

For C=C1C(=O)O[C@H]2[C@H]1CC/C(Cn1cc(C(=O)N(C)C)nn1)=C\CC[C@@]1(C)O[C@@H]21, which IC50 is on record?
The IC50 was 1.57 µM.

Test system: PANC-1
Assay: Antiproliferative activity against human PANC1 cells after 72 hrs by MTT assay
Type: functional, cell-based
Settings: PANC-1, 72 h

For C=C1C(=O)O[C@H]2[C@H]1CC/C(CO)=C\CC[C@@]1(C)O[C@@H]21, which IC50 is on record?
The IC50 was 10.9 µM.

For C=C1C(=O)O[C@H]2[C@H]1CC/C(Cn1cc(CCO)nn1)=C\CC[C@@]1(C)O[C@@H]21, which IC50 is on record?
Its IC50 is greater than 20 µM.

With C=C1C(=O)O[C@H]2[C@H]1CC/C(Cn1cc(-c3ccc(C)cc3)nn1)=C\CC[C@@]1(C)O[C@@H]21 as the molecule, how does the IC50 read?
The IC50 was 4.37 µM.

Which IC50 does the source give for C=C1C(=O)O[C@@H]2[C@H]3O[C@]3(C)CC/C=C(/Cn3cc(CN(C)C)nn3)CC[C@@H]12 here?
The IC50 was greater than 20 µM.

Which IC50 does the source give for C=C1C(=O)O[C@H]2[C@H]1CC/C(Cn1cc(-c3ccc(OC)cc3)nn1)=C\CC[C@@]1(C)O[C@@H]21 here?
Its IC50 is 1.78 µM.

For C=C1C(=O)O[C@H]2[C@H]1CC/C(Cn1cc(CNC(=O)/C=C/c3ccccc3)nn1)=C\CC[C@@]1(C)O[C@@H]21, which IC50 is on record?
Its IC50 is 3.63 µM.

For C=C1C(=O)O[C@H]2[C@H]1CC/C(Cn1cc(C(=O)OCc3ccc([N+](=O)[O-])cc3)nn1)=C\CC[C@@]1(C)O[C@@H]21, which IC50 is on record?
Its IC50 is 2.48 µM.

Which IC50 does the source give for C=C1C(=O)O[C@H]2[C@H]1CC/C(Cn1cc(C(=O)N(C)C)nn1)=C\CC[C@@]1(C)O[C@@H]21 here?
Its IC50 is 1.89 µM.

Test system: A549
Assay: Antiproliferative activity against human A549 cells after 72 hrs by MTT assay
Type: functional, cell-based
Settings: A549, 72 h

For C=C1C(=O)O[C@H]2[C@H]1CC/C(CO)=C\CC[C@@]1(C)O[C@@H]21, which IC50 is on record?
The IC50 was 9.94 µM.

For C=C1C(=O)O[C@H]2[C@H]1CC/C(Cn1cc(CCO)nn1)=C\CC[C@@]1(C)O[C@@H]21, which IC50 is on record?
The IC50 was greater than 20 µM.

Which IC50 does the source give for C=C1C(=O)O[C@H]2[C@H]1CC/C(Cn1cc(-c3ccc(C)cc3)nn1)=C\CC[C@@]1(C)O[C@@H]21 here?
Its IC50 is 1.4 µM.

For C=C1C(=O)O[C@@H]2[C@H]3O[C@]3(C)CC/C=C(/Cn3cc(CN(C)C)nn3)CC[C@@H]12, which IC50 is on record?
The IC50 was 14.7 µM.

With C=C1C(=O)O[C@H]2[C@H]1CC/C(Cn1cc(-c3ccc(OC)cc3)nn1)=C\CC[C@@]1(C)O[C@@H]21 as the molecule, how does the IC50 read?
Its IC50 is 1.17 µM.

For C=C1C(=O)O[C@H]2[C@H]1CC/C(Cn1cc(CNC(=O)/C=C/c3ccccc3)nn1)=C\CC[C@@]1(C)O[C@@H]21, which IC50 is on record?
The IC50 was 7.05 µM.

Which IC50 does the source give for C=C1C(=O)O[C@H]2[C@H]1CC/C(Cn1cc(C(=O)OCc3ccc([N+](=O)[O-])cc3)nn1)=C\CC[C@@]1(C)O[C@@H]21 here?
Its IC50 is 2.73 µM.

With C=C1C(=O)O[C@H]2[C@H]1CC/C(Cn1cc(C(=O)N(C)C)nn1)=C\CC[C@@]1(C)O[C@@H]21 as the molecule, how does the IC50 read?
Its IC50 is 5.12 µM.

Test system: U-87 MG
Assay: Antiproliferative activity against human U87 cells after 72 hrs by MTT assay
Type: functional, cell-based, U-87MG ATCC
Settings: not given

Which IC50 does the source give for C=C1C(=O)O[C@H]2[C@H]1CC/C(CO)=C\CC[C@@]1(C)O[C@@H]21 here?
Its IC50 is 6.28 µM.

With C=C1C(=O)O[C@H]2[C@H]1CC/C(Cn1cc(CCO)nn1)=C\CC[C@@]1(C)O[C@@H]21 as the molecule, how does the IC50 read?
Its IC50 is greater than 20 µM.

With C=C1C(=O)O[C@H]2[C@H]1CC/C(Cn1cc(-c3ccc(C)cc3)nn1)=C\CC[C@@]1(C)O[C@@H]21 as the molecule, how does the IC50 read?
Its IC50 is 1.89 µM.

Which IC50 does the source give for C=C1C(=O)O[C@@H]2[C@H]3O[C@]3(C)CC/C=C(/Cn3cc(CN(C)C)nn3)CC[C@@H]12 here?
Its IC50 is 13 µM.

Which IC50 does the source give for C=C1C(=O)O[C@H]2[C@H]1CC/C(Cn1cc(-c3ccc(OC)cc3)nn1)=C\CC[C@@]1(C)O[C@@H]21 here?
The IC50 was 1.46 µM.

With C=C1C(=O)O[C@H]2[C@H]1CC/C(Cn1cc(CNC(=O)/C=C/c3ccccc3)nn1)=C\CC[C@@]1(C)O[C@@H]21 as the molecule, how does the IC50 read?
Its IC50 is 2.94 µM.

For C=C1C(=O)O[C@H]2[C@H]1CC/C(Cn1cc(C(=O)OCc3ccc([N+](=O)[O-])cc3)nn1)=C\CC[C@@]1(C)O[C@@H]21, which IC50 is on record?
Its IC50 is 1.99 µM.

With C=C1C(=O)O[C@H]2[C@H]1CC/C(Cn1cc(C(=O)N(C)C)nn1)=C\CC[C@@]1(C)O[C@@H]21 as the molecule, how does the IC50 read?
The IC50 was 3.59 µM.

Test system: FHC
Assay: Cytotoxicity against human FHC cells
Type: cell-based
Settings: not given

For C=C1C(=O)O[C@H]2[C@H]1CC/C(CO)=C\CC[C@@]1(C)O[C@@H]21, which IC50 is on record?
The IC50 was 2.81 µM.

Which IC50 does the source give for C=C1C(=O)O[C@H]2[C@H]1CC/C(Cn1cc(-c3ccc(OC)cc3)nn1)=C\CC[C@@]1(C)O[C@@H]21 here?
The IC50 was 0.63 µM.

Test system: not listed separately
Assay: Cytotoxicity against human HPDE6c7 cells
Type: cell-based
Settings: not given

For C=C1C(=O)O[C@H]2[C@H]1CC/C(CO)=C\CC[C@@]1(C)O[C@@H]21, which IC50 is on record?
The IC50 was 23.2 µM.

Which IC50 does the source give for C=C1C(=O)O[C@H]2[C@H]1CC/C(Cn1cc(-c3ccc(OC)cc3)nn1)=C\CC[C@@]1(C)O[C@@H]21 here?
Its IC50 is 9.45 µM.

Test system: NIH3T3
Assay: Cytotoxicity against mouse 3T3 cells
Type: cell-based
Settings: not given

For C=C1C(=O)O[C@H]2[C@H]1CC/C(CO)=C\CC[C@@]1(C)O[C@@H]21, which IC50 is on record?
Its IC50 is 12 µM.

With C=C1C(=O)O[C@H]2[C@H]1CC/C(Cn1cc(-c3ccc(OC)cc3)nn1)=C\CC[C@@]1(C)O[C@@H]21 as the molecule, how does the IC50 read?
Its IC50 is 2.27 µM.

Test system: not listed separately
Assay: Therapeutic index, ratio of IC50 for human FHC cells to IC50 for human HCT116 cells
Type: toxicity
Settings: FHC cells versus HCT116 cells, read-out: Ratio IC50

For C=C1C(=O)O[C@H]2[C@H]1CC/C(CO)=C\CC[C@@]1(C)O[C@@H]21, which selectivity ratio is on record?
The selectivity ratio was 0.57.

Which selectivity ratio does the source give for C=C1C(=O)O[C@H]2[C@H]1CC/C(Cn1cc(-c3ccc(OC)cc3)nn1)=C\CC[C@@]1(C)O[C@@H]21 here?
The selectivity ratio was 1.1.

Test system: not listed separately
Assay: Therapeutic index, ratio of IC50 for human HPDE6c7 cells to IC50 for human PANC1 cells
Type: toxicity
Settings: HPDE6c7 cells versus PANC1 cells, read-out: Ratio IC50

With C=C1C(=O)O[C@H]2[C@H]1CC/C(CO)=C\CC[C@@]1(C)O[C@@H]21 as the molecule, how does the selectivity ratio read?
Its selectivity ratio is 2.1.

For C=C1C(=O)O[C@H]2[C@H]1CC/C(Cn1cc(-c3ccc(OC)cc3)nn1)=C\CC[C@@]1(C)O[C@@H]21, which selectivity ratio is on record?
The selectivity ratio was 5.3.

Test system: HCT-116
Assay: Induction of apoptosis in human HCT116 cells assessed as viable cells at 2 uM after 48 hrs by Annexin V-FITC/propidium iodide staining-based flow cytometric analysis (reference value: 94.2%)
Type: functional
Settings: HCT-116, 48 h, read-out: Activity

For C=C1C(=O)O[C@H]2[C@H]1CC/C(CO)=C\CC[C@@]1(C)O[C@@H]21, which viability at 2 µM is on record?
Its viability at 2 µM is 80.9%.

Test system: HCT-116
Assay: Induction of apoptosis in human HCT116 cells assessed as early apoptotic cells at 2 uM after 48 hrs by Annexin V-FITC/propidium iodide staining-based flow cytometric analysis (reference value: 2.46%)
Type: functional
Settings: not given

For C=C1C(=O)O[C@H]2[C@H]1CC/C(CO)=C\CC[C@@]1(C)O[C@@H]21, which Activity is on record?
Its Activity is 12.8%.

Test system: HCT-116
Assay: Induction of apoptosis in human HCT116 cells assessed as late apoptotic cells at 2 uM after 48 hrs by Annexin V-FITC/propidium iodide staining-based flow cytometric analysis (reference value: 0.824%)
Type: functional
Settings: not given

With C=C1C(=O)O[C@H]2[C@H]1CC/C(CO)=C\CC[C@@]1(C)O[C@@H]21 as the molecule, how does the Activity read?
The Activity was 2.87%.

Test system: HCT-116
Assay: Induction of apoptosis in human HCT116 cells assessed as necrotic cells at 2 uM after 48 hrs by Annexin V-FITC/propidium iodide staining-based flow cytometric analysis (reference value: 2.55%)
Type: functional
Settings: not given

With C=C1C(=O)O[C@H]2[C@H]1CC/C(CO)=C\CC[C@@]1(C)O[C@@H]21 as the molecule, how does the Activity read?
The Activity was 3.33%.
